According to patent publication US12215140B2, “Method of stabilizing protein contained in specimen and solution for stabilizing protein contained in specimen” (EIKEN KAGAKU KABUSHIKI KAISHA, priority 2018, dated 2025):

System: hemoglobin-haptoglobin complex
Experiment: Stability of hemoglobin (as hemoglobin-haptoglobin complex) in samples preserved at 37° C. in preservation solution containing 1 unit/L haptoglobin, Hb measured by latex agglutination method (Examples 1 to 7)
Design: species or system human
Conditions: arylboronic acid 15 mmol/L
Experimental: Preservation solutions were prepared with the addition of 40 mmol/L HEPES (pH 6.8), 0.1% BSA, 0.1% NaN3, 1 unit/L haptoglobin, and 0 to 100 mmol/L phenylboronic acid. Samples obtained by adding hemoglobin-added fecal specimens to the preservation solutions so that the fecal concentration would be 0.5% were preserved at 37° C. for 0, 7, 14, and 21 days. The fecal specimens were added with hemoglobin having an amount such that the hemoglobin concentration in the samples would be about 300 μg/L. Instead of the fecal specimens to which hemoglobin was added, samples containing no fecal specimens, in which hemoglobin was added to the preservation solutions so that the hemoglobin concentration in the samples would be 300 μg/L, were similarly preserved. The hemoglobin (Hb) concentrations (μg/L) in the preserved samples were measured by the latex agglutination method.
The concentrations of hemoglobin were measured using “OC-Hemodia (registered trademark) Auto III ‘EIKEN’” (available from EIKEN CHEMICAL CO., LTD.) as a measurement reagent and “OC-sensor DIANA” (available from EIKEN CHEMICAL CO., LTD.) as a measurement device. The above measurement reagent contains latex particles immobilizing an anti-human hemoglobin rabbit polyclonal antibody.
From the measured concentrations of hemoglobin, the recovery ratios (%) were calculated with respect to the hemoglobin concentrations immediately after the fecal specimens were added to the preservation solutions (i.e., concentrations 0 days after the fecal specimens were added).
(§1) For comparative examples, preservation solutions to which no arylboronic acid was added were prepared, and testing was conducted in the same manner.
(§2) The concentration of phenylboronic acid in the preservation solutions of Example 1 was fixed to 15 mmol/L, preservation solutions to which a sugar (sorbitol, sucrose, trehalose, glucose, fructose, or mannitol) was further added at 50 mmol/L or 100 mmol/L or preservation solutions to which no sugar was added were prepared, and testing was conducted in the same manner as in Example 1. For comparative examples, preservation solutions to which the phenylboronic acid and sugar were not added were prepared, and testing was conducted in the same manner.
Preservation solutions in which sorbitol, sucrose, trehalose, glucose, fructose, or mannitol was added at 100 mmol/L to the preservation solutions of Example 1 containing no phenylboronic acid were prepared, and testing was conducted in the same manner as in Example 1. For comparison, the same testing was conducted without adding these sugars.
as §2, with “sorbitol” for “a sugar (sorbitol, sucrose, trehalose, glucose, fructose, or mannitol)”, “was” for “was further”, “10 to 500” for “50”, “sucrose was added at 10 to 250” for “100”
as §1

[1] = Feces 1, sugar (if added) 100 mmol/L, 0 days at 37° C.
[2] = Feces 1, sugar (if added) 100 mmol/L, 7 days at 37° C.
[3] = Feces 1, sugar (if added) 100 mmol/L, 14 days at 37° C.
[4] = Feces 2, sugar (if added) 100 mmol/L, 0 days at 37° C.
[5] = Feces 2, sugar (if added) 100 mmol/L, 7 days at 37° C.
[6] = Feces 2, sugar (if added) 100 mmol/L, 14 days at 37° C.
[7] = Feces 3, sugar (if added) 100 mmol/L, 0 days at 37° C.
[8] = Feces 3, sugar (if added) 100 mmol/L, 7 days at 37° C.
[9] = Feces 3, sugar (if added) 100 mmol/L, 14 days at 37° C.
[10] = No feces, sugar (if added) 100 mmol/L, 0 days at 37° C.
[11] = No feces, sugar (if added) 100 mmol/L, 7 days at 37° C.
[12] = No feces, sugar (if added) 100 mmol/L, 14 days at 37° C.

## O=C(O)c1cccc(B(O)O)c1 [3C-PBA, 3-carboxyphenylboronic acid]
[1]
  Hb concentration: 309 µg/L
  Recovery ratio with respect to Hb after 0 days: 100%
[2]
  Hb concentration: 249 µg/L
  Recovery ratio with respect to Hb after 0 days: 81%
[3]
  Hb concentration: 239 µg/L
  Recovery ratio with respect to Hb after 0 days: 77%
Feces 1, 37° C., 0 days
  Hb concentration: 309 µg/L
  Recovery ratio with respect to Hb after 0 days: 100%
Feces 1, 37° C., 7 days
  Hb concentration: 249 µg/L
  Recovery ratio with respect to Hb after 0 days: 81%
Feces 1, 37° C., 14 days
  Hb concentration: 239 µg/L
  Recovery ratio with respect to Hb after 0 days: 77%
[4]
  Hb concentration: 309 µg/L
  Recovery ratio with respect to Hb after 0 days: 100%
[5]
  Hb concentration: 264 µg/L
  Recovery ratio with respect to Hb after 0 days: 85%
[6]
  Hb concentration: 240 µg/L
  Recovery ratio with respect to Hb after 0 days: 78%
Feces 2, 37° C., 0 days
  Hb concentration: 309 µg/L
  Recovery ratio with respect to Hb after 0 days: 100%
Feces 2, 37° C., 7 days
  Hb concentration: 264 µg/L
  Recovery ratio with respect to Hb after 0 days: 85%
Feces 2, 37° C., 14 days
  Hb concentration: 240 µg/L
  Recovery ratio with respect to Hb after 0 days: 78%
[7]
  Hb concentration: 300 µg/L
  Recovery ratio with respect to Hb after 0 days: 100%
[8]
  Hb concentration: 213 µg/L
  Recovery ratio with respect to Hb after 0 days: 71%
[9]
  Hb concentration: 200 µg/L
  Recovery ratio with respect to Hb after 0 days: 67%
Feces 3, 37° C., 0 days
  Hb concentration: 300 µg/L
  Recovery ratio with respect to Hb after 0 days: 100%
Feces 3, 37° C., 7 days
  Hb concentration: 213 µg/L
  Recovery ratio with respect to Hb after 0 days: 71%
Feces 3, 37° C., 14 days
  Hb concentration: 200 µg/L
  Recovery ratio with respect to Hb after 0 days: 67%
[10]
  Hb concentration: 293 µg/L
  Recovery ratio with respect to Hb after 0 days: 100%
[11]
  Hb concentration: 281 µg/L
  Recovery ratio with respect to Hb after 0 days: 96%
[12]
  Hb concentration: 276 µg/L
  Recovery ratio with respect to Hb after 0 days: 94%
No feces, 37° C., 0 days
  Hb concentration: 293 µg/L
  Recovery ratio with respect to Hb after 0 days: 100%
No feces, 37° C., 7 days
  Hb concentration: 281 µg/L
  Recovery ratio with respect to Hb after 0 days: 96%
No feces, 37° C., 14 days
  Hb concentration: 276 µg/L
  Recovery ratio with respect to Hb after 0 days: 94%

## OB(O)c1cccc(O)c1 [3H-PBA, 3-hydroxyphenylboronic acid]
[1]
  Hb concentration: 327 µg/L
  Recovery ratio with respect to Hb after 0 days: 100%
[2]
  Hb concentration: 269 µg/L
  Recovery ratio with respect to Hb after 0 days: 82%
[3]
  Hb concentration: 268 µg/L
  Recovery ratio with respect to Hb after 0 days: 82%
Feces 1, 37° C., 0 days
  Hb concentration: 327 µg/L
  Recovery ratio with respect to Hb after 0 days: 100%
Feces 1, 37° C., 7 days
  Hb concentration: 269 µg/L
  Recovery ratio with respect to Hb after 0 days: 82%
Feces 1, 37° C., 14 days
  Hb concentration: 268 µg/L
  Recovery ratio with respect to Hb after 0 days: 82%
[4]
  Hb concentration: 326 µg/L
  Recovery ratio with respect to Hb after 0 days: 100%
[5]
  Hb concentration: 277 µg/L
  Recovery ratio with respect to Hb after 0 days: 85%
[6]
  Hb concentration: 264 µg/L
  Recovery ratio with respect to Hb after 0 days: 81%
Feces 2, 37° C., 0 days
  Hb concentration: 326 µg/L
  Recovery ratio with respect to Hb after 0 days: 100%
Feces 2, 37° C., 7 days
  Hb concentration: 227 µg/L
  Recovery ratio with respect to Hb after 0 days: 85%
Feces 2, 37° C., 14 days
  Hb concentration: 264 µg/L
  Recovery ratio with respect to Hb after 0 days: 81%
[7]
  Hb concentration: 313 µg/L
  Recovery ratio with respect to Hb after 0 days: 100%
[8]
  Hb concentration: 213 µg/L
  Recovery ratio with respect to Hb after 0 days: 68%
[9]
  Hb concentration: 206 µg/L
  Recovery ratio with respect to Hb after 0 days: 66%
Feces 3, 37° C., 0 days
  Hb concentration: 313 µg/L
  Recovery ratio with respect to Hb after 0 days: 100%
Feces 3, 37° C., 7 days
  Hb concentration: 213 µg/L
  Recovery ratio with respect to Hb after 0 days: 68%
Feces 3, 37° C., 14 days
  Hb concentration: 206 µg/L
  Recovery ratio with respect to Hb after 0 days: 66%
[10]
  Hb concentration: 303 µg/L
  Recovery ratio with respect to Hb after 0 days: 100%
[11]
  Hb concentration: 294 µg/L
  Recovery ratio with respect to Hb after 0 days: 97%
[12]
  Hb concentration: 296 µg/L
  Recovery ratio with respect to Hb after 0 days: 98%
No feces, 37° C., 0 days
  Hb concentration: 303 µg/L
  Recovery ratio with respect to Hb after 0 days: 100%
No feces, 37° C., 7 days
  Hb concentration: 294 µg/L
  Recovery ratio with respect to Hb after 0 days: 97%
No feces, 37° C., 14 days
  Hb concentration: 296 µg/L
  Recovery ratio with respect to Hb after 0 days: 98%
